Test results reported in patent US6326386A, “Benzamide derivatives as thrombin inhibitors” (Glaxo Group Limited, priority 1995, dated 2001).

The compounds below were run against T1, human α-thrombin (Homo sapiens, UniProt P00734) (assay: Inhibition of human α-thrombin in a chromogenic assay (N-p-tosyl-gly-pro-lys p-nitroanilide substrate)). Details: human α-thrombin 1 nM, substrate 100 μM, pH 7.4, room temperature, 405 nm; preincubation (zero or 15 mins) not given.
T1 construct: human α-thrombin
Assay type: biochemical
Experimental: All dilutions were made in a buffer consisting of: 50 mM HEPES, 150 mM NaCl, 5 mM CaCl2, 0.1% PEG and at pH 7.4. Briefly, the substrate (final conc. of 100 μM) was added to thrombin (final conc. of 1 nM) and the reaction monitored for 10 mins at 405 nm using a Biotek EL340 plate reader; the assay was performed at room temperature. To obtain IC50 s the data were analyzed using Kineticalc® with a 4-parameter curve fitting procedure to obtain the IC50 value.
The compounds of the present invention are thrombin inhibitors. The results below illustrate the thrombin activity of a range of compounds of formula (I) using the previously described biological method: […]
With `CC(C)N(CCC(N)=O)C(=O)c1cc(Cl)cc(OCCNc2ccncc2)c1` [Example 58, N-(2-Carbamoyl-ethyl)-3-chloro-N-isopropyl-5-[2-(pyridin-4-ylamino)-ethoxy]-benzamide] the IC50 was 107 nM. Compound `O=C(c1cc(Cl)cc(OCCNc2ccncc2)c1)N(CCCCn1cncn1)C1CCCC1` [Example 92, 3-Chloro-N-cyclopentyl-5-[2-(pyridin-4-ylamino)-ethoxy]-N-(4-[1,2,4]triazol-1-yl-butyl)-benzamide] has an IC50 of 15 nM. With `CC(C)N(CCCNS(C)(=O)=O)C(=O)c1cc(Cl)cc(OCCNc2ccncc2)c1` [Example 72, 3-Chloro-N-isopropyl-N-(3-methanesulfonylamino-propyl)-5-[2-(pyridin-4-ylamino)-ethoxy]-benzamide] the IC50 was 63 nM. In the case of `O=C(O)CCCCCN(CC1CCCCC1)C(=O)c1cc(Cl)cc(OCCNc2ccncc2)c1` [Example 124, 6-({3-Chloro-5-[2-(pyridin-4-ylamino)-ethoxy]-benzoyl}-cyclohexylmethyl-amino)-hexanoic acid], the IC50 is reported as 28 nM. In the case of `CC(C)N(CCc1noc(O)n1)C(=O)c1cc(Cl)cc(OCCNc2ccncc2)c1` [Example 109], the IC50 is reported as 140 nM. `O=C(c1cc(Cl)cc(OCCNc2ccncc2)c1)N(CCn1cncn1)C1CCCC1` [Example 91, 3-Chloro-N-cyclopentyl-5-[2-(pyridin-4-ylamino)-ethoxy]-N-(2-[1,2,4]triazol-1-yl-ethyl)-benzamide] showed an IC50 of 34 nM. Compound `O=C(O)CCCN(C(=O)c1cc(Cl)cc(OCCNc2ccncc2)c1)C1CCC1` [Example 128, 4-({3-Chloro-5-[2-(pyridin-4-ylamino)-ethoxy]-benzol}-cyclobutyl-amino)-butyric acid] has an IC50 of 41 nM. For `C=CCN(C(=O)c1cc(Cl)cc(OCCNc2ccncc2)c1)C1CCCC1` [Example 6, N-Allyl-3-chloro-N-cyclopentyl-5-[2-(pyridin-4-ylamino)-ethoxy]-benzamide], the IC50 was 5 nM. Compound `O=C(CCN(C(=O)c1cc(Cl)cc(OCCNc2ccncc2)c1)c1ccccc1)N1CCSCC1` [Example 49, 3-Chloro-N-(3-oxo-3-thiomorpholin-4-yl-propyl)-N-phenyl-5-[2-(pyridin-4-ylamino)-ethoxy]-benzamide] has an IC50 of 38 nM. In the case of `O=C(c1cc(Cl)cc(OCCNc2ccncc2)c1)N(CCOCC(O)CO)c1ccccc1` (stereo not drawn) [Example 41, 3-Chloro-N-[2-(2,3-dihydroxy-propoxy)-ethyl]-N-phenyl-5-[2-(pyridin-4-ylamino)-ethoxy]-benzamide], the IC50 is reported as 28 nM. For `O=C(c1cc(Cl)cc(OCCNc2ccncc2)c1)N(CCCN1CCOCC1)C1CCCC1` [Example 13, 3-Chloro-N-cyclopentyl-N-(3-morpholin-4-yl-propyl)-5-[2-(pyridin-4-ylamino)-ethoxy]-benzamide], the IC50 was 15 nM. Compound `O=C(c1cc(Cl)cc(OCCNc2ccncc2)c1)N(CCCO)C1CCCC1` [Example 9, 3-Chloro-N-cyclopentyl-N-(3-hydroxy-propyl)-5-[2-(pyridin-4-ylamino)-ethoxy]-benzamide] has an IC50 of 7 nM. Compound `NC(=O)CCCCCN(Cc1ccco1)C(=O)c1cc(Cl)cc(OCCNc2ccncc2)c1` [Example 138, N-(5-Carbamoyl-pentyl)-3-chloro-N-furan-2-ylmethyl-5-[2-(pyridin-4-ylamino)-ethoxy]-benzamide] has an IC50 of 91 nM. `CCCN(C(=O)c1cc(Cl)cc(OCCNc2ccncc2)c1)c1cc(F)cc(F)c1` [Example 29, 3-Chloro-N-(3,5-difluoro-phenyl)-N-propyl-5-[2-(pyridin-4-ylamino)-ethoxy]-benzamide] was tested, and the IC50 was 62 nM. Compound `NC(=O)CCN(CC1CC1)C(=O)c1cc(Cl)cc(OCCNc2ccncc2)c1` [Example 55, N-(2-Carbamoyl-ethyl)-3-chloro-N-cyclopropylmethyl-5-[2-(pyridin-4-ylamino)-ethoxy]-benzamide] has an IC50 of 50 nM. For `CCOC(=O)CCCN(C(=O)c1cc(Cl)cc(OCCNc2ccncc2)c1)C1CCCC1` [Example 17, 4-({3-Chloro-5-[2-(pyridin-4-ylamino)-ethoxy]-benzoyl}-cyclopentyl-amino)-butyric acid ethyl ester], the IC50 was 14 nM. Work on `O=C(CCCN(C(=O)c1cc(Cl)cc(OCCNc2ccncc2)c1)c1ccccc1F)N1CCCC1` [Example 37, 3-Chloro-N-(2-fluoro-phenyl)-N-(4-oxo-4-pyrrolidin-1-yl-butyl)-5-[2-(pyridin-4-ylamino)-ethoxy]-benzamide] yielded an IC50 of 17 nM. Compound `O=C(c1cc(Cl)cc(OCCNc2ccncc2)c1)N(CCCc1nnn[nH]1)c1ccccc1F` [Example 40, 3-Chloro-N-(2-fluoro-phenyl)-5-[2-(pyridin-4-ylamino)-ethoxy]-N-[3-(1H-tetrazol-5-yl)-propyl]-benzamide] has an IC50 of 9 nM. Work on `O=C(CCCN(C(=O)c1cc(Cl)cc(OCCNc2ccncc2)c1)C1CCCC1)N1CCCC1` [Example 20, 3-Chloro-N-cyclopentyl-N-(4-oxo-4-pyrrolidin-1-yl-butyl)-5-[2-(pyridin-4-ylamino)-ethoxy]-benzamide] yielded an IC50 of 9 nM. Work on `CC(C)CN(Cc1ccc(C(=O)O)cc1)C(=O)c1cc(Cl)cc(OCCNc2ccncc2)c1` [Example 118, 4-[({3-Chloro-5-[2-(pyridin-4-ylamino)-ethoxy]-benzoyl}-isobutyl-amino)-methyl]-benzoic acid] yielded an IC50 of 10 nM. `COCCN(C(=O)c1cc(Cl)cc(OCCNc2ccncc2)c1)C(C)C` [Example 99, 3-Chloro-N-isopropyl-N-(2-methoxy-ethyl)-5-[2-(pyridin-4-ylamino)-ethoxy]-benzamide] showed an IC50 of 40 nM. `O=C(c1cc(Cl)cc(OCCNc2ccncc2)c1)N(CCCn1cncn1)c1ccc(F)cc1` [Example 90, 3-Chloro-N-(4-fluoro-phenyl)-5-[2-(pyridin-4-ylamino)-ethoxy]-N-(3-[1,2,4]triazol-1-yl-propyl)-benzamide] gave an IC50 of 22 nM. Work on `CC(C)(C)NC(=O)CCN(C(=O)c1cc(Cl)cc(OCCNc2ccncc2)c1)c1ccccc1` [Example 47, N-(2-tert-Butylcarbamoyl-ethyl)-3-chloro-N-phenyl-5-[2-(pyridin-4-ylamino)ethoxy]-benzamide] yielded an IC50 of 61 nM. In the case of `Cc1cc(OCCNc2ccncc2)cc(C(=O)N(C)C2CCCCC2)c1` [Example 1, N-Cyclohexyl-3, N-dimethyl-5-[2-(pyridin-4-ylamino)-ethoxy]-benzamide], the IC50 is reported as 8 nM.
